One block for each compound: values may come before it.
Columns and labels:
VMAT2 = VMAT2 (Rattus norvegicus (Rat), UniProt Q01827); assay: Radioactivity detection of binding to VMAT2 in rats ([3H]DHTBZ binding assay, rat cerebral vesicle membrane); conditions: Table 25
Procedure: I. Radioactivity Detection of Activity of Compounds Binding to VMAT2 in Rats (Binding assay)
To determine the IC50 and Ki values of the binding of various compounds to VMAT2 in rats and to evaluate the affinity of compounds for VMAT2.
Male Wistar rat, weighing 175±25 g, was selected and the whole brain (without the cerebellum) of the rat was isolated surgically and placed into a pre-chilled sucrose solution (20 mL, 0.32 M) and homogenized by a Teflon pestle homogenizer. […] The supernatant was discarded and the precipitate obtained was placed in ice cold MilliQ water (18 mL, Millipore Corporation, Billerica, MA), incubated for 5 minutes and subjected to osmotic shock to shatter cell membrane. Then osmolarity was restored by addition of HEPES solution (25 mM, 2 mL) and potassium tartrate solution (100 mM, 2 mL). The resulting sample was centrifuged at 20,000 g for 20 min at 4° C. The supernatant was aspirated and MgSO4 solution (1 mM, 20 μL) was added. […] The precipitate was collected and resuspended in ice cold assay buffer (25 mM HEPES, 100 mM potassium tartrate, 5 mM MgSO4, 0.1 mM EDTA and 0.05 mM EGTA, pH 7.5) to obtain a vesicle suspension.
After completion of the incubation, the reaction solution was filtered (bacteria filter and collector, PerkinElmer Life and Analytical Sciences) to a filter plate and subsequently, the filter membrane was washed with 350 μL of ice-cold buffer (25 mM HEPES, 100 mM potassium tartrate, 5 mM MgSO4 and 10 mM NaCl, pH 7.5) five times. The filter plate was dried and had the bottom sealed. 40 μL of scintillation cocktail (MicroScint 20; PerkinElmer Life and Analytical Sciences) was added to each well. Radioactivity on the filter was determined by liquid scintillation spectrometry (TopCount NXT; PerkinElmer Life and Analytical Sciences).
Based on the radioactivity assay results above, IC50 and Ki were calculated. IC50 was calculated by a non-linear, least squares regression analysis using MathIQ™ (ID Business Solutions Ltd., UK). Ki values were calculated using the equation of Cheng and Prusoff (Cheng, Y., Prusoff, W. H., Biochem. Pharmacol. 22:3099-3108, 1973). Ki values were calculated in combination with the IC50 of the test compound and the historical KD in the radioactivity detection method of Eurofins Panlabs company.

[1] = Liver microsome incubation test, rat; conditions: rat liver microsomes 0.5 mg/mL, 1 μM compound, NADPH, 37° C.
Procedure: (§1) Incubation: 100 μL of an incubation system included: liver microsomes (human, rat, mouse, monkey or dog) (0.5 mg/mL), sodium phosphate buffer (100 mM), and magnesium chloride (10 mM). […] After pre-incubation of the systems at 37° C. for 3 min, NADPH was added to a final concentration of 1 mM. The reaction was started. […] Each sample at each time point was processed parallelly in duplicate and a blank control group without coenzymes and a positive control group were provided.
(§2) A certain amount of internal standard was added to the sample following termination with acetonitrile. […] Relative remaining amount was taken as the ordinate and time as the abscissa.

[2] = Excipient compatibility test (purity after storage with excipients); format: physicochemical; conditions: for purity change after mixing with excipients: mixed with excipients 1:20, placed open at 60° C. for 5 days
Procedure: Then the mixture was placed open at 60° C. for 5 days.
Purity detection method: about 35 mg of the sample was weighed precisely and placed in a 25 ml measuring flask. 15 ml of acetonitrile was added to dissolve the sample by ultrasound. Water was used to dilute to a given mark and the mixture was shaken uniformly and used as sample solution to be tested. Determination was carried out based on high performance liquid chromatography, octadecyl silane bonded silica gel was used as the filler (Inerstil ODS-3V, 250 mm×4.6 mm, 5 μm); 10 mmol/L diammonium hydrogen phosphate solution (adjusting the pH value to 6.95±0.05)-acetonitrile (80:20) was used as mobile phase A, acetonitrile was used as mobile phase B, and gradient elution was carried out according to Table 39. The detection wavelength was 282 nm; the column temperature was 35° C.; and the flow rate was 1.0 ml/min. 10 μl of the sample solution to be tested was precisely measured and injected into the liquid chromatograph, and the chromatogram was recorded. Calculation was carried out by the peak area normalization method.

[3] = tested on: SD rat autonomous activity; assay: SD rat autonomous activity model (total movement distance in open field, TopScan); format: in vivo; conditions: SD rats, 0 hr to 1 hr post-dose
Procedure: SD rat autonomous activity models were used in the study.
• 2.1 Test animals: 32 SD rats, SPF-grade, Male, 5-7 weeks old, weighing: 200-220 g, pre-accustomed for at least 1 week before the test.
Preparation method: An appropriate amount of the medicament was weighed and dissolved with a small amount of DMSO (not more than 1% of the total volume). Then, 20% Solutol was added to obtain the desired medicament concentration and the final concentration of DMSO was <4%.
The rats were put into the detection box, pre-accustomed for 10 min and fasted. Animal grouping and dosing information were detailed in Table 35.
On the day of the test, the animals were accustomed for at least 1 hr in the test room. Rats in each group were given a vehicle or corresponding medicaments, respectively according to the doses in Table 35 in one single gavage and then put into the activity room. […] Rats of a same group should not be put in one same room among the eight activity rooms, and there was at least one rat from the control group in each round of test to prevent mutual interference. At the end of each round of test, the feces were swept out and the activity rooms were cleaned to avoid the influence of irrelevant interfering factors (odor, etc.) on the exercise activities of the rats.
The total movement distances of rats from 2 hr to 3 hr post-dose were recorded and analyzed by using a TopScan monitoring system and the reduction rate (RR) of the total movement distance was calculated, wherein RR=(Control group movement distance-Administration group movement distance)/Control group movement distance*100%.
Test data were expressed as mean±standard error of the mean (MEAN±SEM). Difference between various groups at each time point was compared by using PASW Statistics 18.0 software with one-way analysis of variance (ANOVA).
Animal grouping and dosing information were detailed in […].

[4] = Pharmacokinetic test in SD rats, gavage 10 μmol/kg (plasma concentration-time curves); format: in vivo; conditions: male SD rats, FIG. 9
Procedure: Method of Pharmacokinetic Test in SD Rats:
The dosage of administration was 10 μmol/kg. At 0.25, 0.5, 1, 2, 3, 4, 6, 8 and 12 h post-dose, blood samples (about 0.2 mL/time point/rat) were collected to heparinized tubes.

[5] = Liver microsome incubation test, dog; format: in vitro ADME; conditions: dog liver microsomes 0.5 mg/mL, 1 μM compound, NADPH, 37° C.
Procedure: as §1, §2

[6] = Distribution test in SD rat brain tissue, gavage 12 μmol/kg (brain concentration, brain/plasma ratio); format: in vivo; conditions: SD rats, gavage 12 μmol/kg of compound 21 or VBZ, 2 h post-dose; compound 21 vs VBZ, metabolite compound 11 vs DHTBZ
Procedure: After the rats were sacrificed, the brain tissues were extracted, washed with normal saline and dried with filter paper. Cerebral vessels were stripped and the remaining brain tissues were weighed and stored at −20° C.

[7] = Liver microsome incubation test, human; conditions: human liver microsomes 0.5 mg/mL, 1 μM compound, NADPH, 37° C.
Procedure: as §1, §2

[8] = Pharmacokinetic / bioavailability test in SD rats (gavage 5 μmol/kg, intravenous 2 μmol/kg); conditions: male, rat, plasma, 2 umol/kg
Procedure: At each corresponding time point post-dose, blood samples (about 1 ml/time point/rat) were collected to heparinized tubes. Within half an hour after collection, the samples were centrifuged to separate the plasma, which was transferred to 1.5 ml EP tubes and stored at −20° C. for detection.
Method for precipitating proteins was used for the pretreatment of the samples: protein precipitation was carried out in 25 μL of plasma by using 200 μL of acetonitrile containing internal standard. After high-speed centrifugation, the supernatant was diluted with water (1:1 (V/V)) and injected for analysis.

[9] = 11-P4S crystal forms A/D/E suspension competition test; format: physicochemical; conditions: suspension in IPA / IPAc, room temperature to 50° C., 17 hours
Procedure: Then XRPD was carried out on the solid.

Sequence of VMAT2 (Q01827 whole entry): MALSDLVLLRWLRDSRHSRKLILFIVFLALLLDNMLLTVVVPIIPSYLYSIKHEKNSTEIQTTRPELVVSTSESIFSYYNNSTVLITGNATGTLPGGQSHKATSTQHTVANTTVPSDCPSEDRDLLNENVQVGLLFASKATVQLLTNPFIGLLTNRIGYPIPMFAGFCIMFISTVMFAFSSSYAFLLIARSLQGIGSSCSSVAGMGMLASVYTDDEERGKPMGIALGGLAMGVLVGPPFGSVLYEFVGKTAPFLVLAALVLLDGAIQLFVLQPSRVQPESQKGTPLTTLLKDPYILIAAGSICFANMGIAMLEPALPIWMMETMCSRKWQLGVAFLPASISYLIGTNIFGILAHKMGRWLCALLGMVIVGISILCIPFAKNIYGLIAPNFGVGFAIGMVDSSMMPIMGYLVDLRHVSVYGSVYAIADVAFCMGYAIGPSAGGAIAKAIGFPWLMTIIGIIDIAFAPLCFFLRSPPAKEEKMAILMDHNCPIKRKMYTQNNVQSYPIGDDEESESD

purity change after mixing with excipients [2]: purity dropped obviously
SMILES: COc1cc2c(cc1OCC(F)(F)F)CCN1C[C@@H](CC(C)C)[C@H](O)C[C@H]21 [Compound 11-P4]
movement distance (rat autonomous activity) ([3]; 1.25 μmol/kg): 9313±1213 mm | movement distance (rat autonomous activity) ([3]; 2.5 μmol/kg): 5959±1615 mm | movement distance (rat autonomous activity) ([3]; 5.0 μmol/kg): 1216±429.9 mm | movement distance (rat autonomous activity) ([3]; 10.0 μmol/kg): 1355±524.1 mm

exposure compared to Comparative Example 44 compound and DHTBZ [4]: higher exposure | concentration in brain tissue compared to VBZ and DHTBZ [6]: significantly higher
SMILES: COc1cc2c(cc1OCC(F)(F)F)CCN1CC(CC(C)C)C(O)CC21 (centres unmarked) [Compound 11]
Elimination half-life (t1/2) in liver microsomes [1]: ~ (the data showed that the metabolism was stable and the rate of the original compound left was greater than 80% after an incubation of 60 min.) | Elimination half-life (t1/2) in liver microsomes [5]: ~ (the data showed that the metabolism was stable and the rate of the original compound left was greater than 80% after an incubation of 60 min.)

IC50 (VMAT2): 12.9 nM
SMILES: CCOc1cc2c(cc1OC)C1CC(O)C(CC(C)C)CN1CC2 (centres unmarked) [Compound 16]
Elimination half-life (t1/2) in liver microsomes [1]: ~ (the data showed that the metabolism was stable and the rate of the original compound left was greater than 80% after an incubation of 60 min.)

IC50 (VMAT2): 4.9 nM
SMILES: CCCOc1cc2c(cc1OC)C1CC(O)C(CC(C)C)CN1CC2 (centres unmarked) [Compound 20]

purity ([2]; API alone, 0 d): 99.70% | purity ([2]; API alone, high temperature (60° C.), open, 5 d): 99.69% | purity ([2]; mixed with MCC 1:20, high temperature (60° C.), open, 5 d): 99.26% | purity change after mixing with excipients [2]: no obvious change | purity ([2]; mixed with magnesium stearate 1:20, high temperature (60° C.), open, 5 d): 99.68% | purity ([2]; mixed with talc powder 1:20, high temperature (60° C.), open, 5 d): 99.68%
SMILES: COc1cc2c(cc1OCC(F)(F)F)CCN1C[C@@H](CC(C)C)[C@H](O)C[C@H]21.Cc1ccc(S(=O)(=O)O)cc1 [crystal form A of 11-P4S]
thermodynamic stability of crystal form [9]: most thermodynamically stable crystal form

Second part, the compound before the results:

SMILES: CCCOc1cc2c(cc1OCC)CCN1CC(CC(C)C)C(O)CC21 (centres unmarked) [Comparative Example 41, reference compound]
IC50 (VMAT2): 280 nM

SMILES: COc1cc2c(cc1OCCCF)CCN1CC(CC(C)C)C(O)CC21 (centres unmarked) [Comparative Example 44, reference compound]
Elimination half-life (t1/2) in liver microsomes [1]: ~ (the data showed that the metabolism was stable and the rate of the original compound left was greater than 80% after an incubation of 60 min.)

SMILES: COc1cc2c(cc1OCC(F)F)CCN1CC(CC(C)C)C(O)CC21 (centres unmarked) [Compound 12]
Elimination half-life (t1/2) in liver microsomes [1]: ~ (the data showed that the metabolism was stable and the rate of the original compound left was greater than 80% after an incubation of 60 min.) | Elimination half-life (t1/2) in liver microsomes [7]: ~ (the data showed that the metabolism was stable and the rate of the original compound left was greater than 80% after an incubation of 60 min.) | Elimination half-life (t1/2) in liver microsomes [5]: ~ (the data showed that the metabolism was stable and the rate of the original compound left was greater than 80% after an incubation of 60 min.)

SMILES: COc1cc2c(cc1OCCCC(F)(F)F)CCN1CC(CC(C)C)C(O)CC21 (centres unmarked) [Compound 13]
Elimination half-life (t1/2) in liver microsomes [1]: ~ (the data showed that the metabolism was stable and the rate of the original compound left was greater than 80% after an incubation of 60 min.) | Elimination half-life (t1/2) in liver microsomes [5]: ~ (the data showed that the metabolism was stable and the rate of the original compound left was greater than 80% after an incubation of 60 min.)

SMILES: COCCCOc1cc2c(cc1OC)C1CC(O)C(CC(C)C)CN1CC2 (centres unmarked) [Compound 17]
IC50 (VMAT2): 58 nM

SMILES: COc1cc2c(cc1OCC(F)(F)F)CCN1CC(CC(C)C)C(OC(=O)[C@@H](N)C(C)C)CC21 (some centres unmarked) [Compound 21]
concentration in brain tissue compared to VBZ and DHTBZ [6]: significantly higher

SMILES: COc1cc2c(cc1OC)[C@H]1C[C@@H](OC(=O)[C@@H](N)C(C)C)[C@H](CC(C)C)CN1CC2 [VBZ, valbenazine]
half-life [8]: 1.67 h

From patent publication US12565495B2, “VMAT2 inhibitor and preparation method therefor and application thereof” (Luye Innomind Pharma Shijiazhuang Co., Ltd., priority 2019, dated 2026)
